Data set [1] relates to HepG2. Nature of the data set: Toxicity in human HepG2 cells assessed as reduction in cell viability up to 100 uM by MTT assay. The format is cell-based. Background: Tetrazolium dyes change colour on reduction, which living cells bring about.
Data set [2] in a line: Toxicity in CD1 mouse PSNL model assessed as induction of opiate withdrawal by measuring expression of some behavioral signs measured immediately after naloxone injection at 1.25 mg/kg, ip BID for 11 days from day 13 to day 22 and measured on day 23. The format is organism-based. The settings on record: in vivo, 264 h, time 11 day.
Data set [3] in a line: Distribution coefficient, logD of compound at pH 7.4. The format is physicochemical. Conditions: octanol/water.
Data set [4] addresses CYP2C9 (Homo sapiens, UniProt P11712). Briefly: Inhibition of human CYP2C9 at 1 uM relative to control. The format is ADME.
The target in data set [5] is Voltage-gated inwardly rectifying potassium channel KCNH2 (Homo sapiens, UniProt Q12809).
Sequence of Voltage-gated inwardly rectifying potassium channel KCNH2 (Q12809 whole entry): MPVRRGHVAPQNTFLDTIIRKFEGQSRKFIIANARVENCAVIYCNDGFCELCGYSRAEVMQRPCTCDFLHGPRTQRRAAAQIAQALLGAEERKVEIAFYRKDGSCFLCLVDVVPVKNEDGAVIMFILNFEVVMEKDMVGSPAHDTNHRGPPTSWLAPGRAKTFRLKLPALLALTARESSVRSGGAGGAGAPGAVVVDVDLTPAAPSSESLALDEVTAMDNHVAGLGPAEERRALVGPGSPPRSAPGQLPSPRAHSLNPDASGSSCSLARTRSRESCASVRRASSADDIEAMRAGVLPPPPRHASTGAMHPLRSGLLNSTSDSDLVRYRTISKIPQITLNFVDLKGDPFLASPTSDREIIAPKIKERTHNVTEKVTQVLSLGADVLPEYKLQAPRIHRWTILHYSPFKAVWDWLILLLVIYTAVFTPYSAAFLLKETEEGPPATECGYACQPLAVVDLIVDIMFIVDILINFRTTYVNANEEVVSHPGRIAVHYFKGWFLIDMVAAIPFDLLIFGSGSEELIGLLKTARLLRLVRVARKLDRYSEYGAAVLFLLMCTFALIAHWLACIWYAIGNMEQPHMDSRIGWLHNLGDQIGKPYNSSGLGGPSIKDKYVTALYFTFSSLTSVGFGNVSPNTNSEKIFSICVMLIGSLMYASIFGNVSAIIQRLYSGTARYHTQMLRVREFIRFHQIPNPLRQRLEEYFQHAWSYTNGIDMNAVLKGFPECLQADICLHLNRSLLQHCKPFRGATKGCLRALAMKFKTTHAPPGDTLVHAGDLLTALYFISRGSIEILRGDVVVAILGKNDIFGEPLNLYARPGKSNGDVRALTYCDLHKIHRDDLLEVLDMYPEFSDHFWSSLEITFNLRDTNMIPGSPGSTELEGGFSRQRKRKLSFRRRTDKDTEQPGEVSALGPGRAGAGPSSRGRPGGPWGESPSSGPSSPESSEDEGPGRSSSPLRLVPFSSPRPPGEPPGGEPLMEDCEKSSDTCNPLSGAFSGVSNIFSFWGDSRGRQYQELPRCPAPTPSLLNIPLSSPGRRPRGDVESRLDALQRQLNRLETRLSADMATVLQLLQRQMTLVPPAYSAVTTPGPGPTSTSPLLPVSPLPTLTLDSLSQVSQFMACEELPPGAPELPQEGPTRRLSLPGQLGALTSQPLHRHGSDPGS
Description: Inhibition of human ERG expressed in CHO cells at -80 mV holding potential by whole cell patch clamp assay
Data set [6] addresses T1, Alpha-1A adrenergic receptor (Homo sapiens) (UniProt P35348).
T1 sequence (whole entry): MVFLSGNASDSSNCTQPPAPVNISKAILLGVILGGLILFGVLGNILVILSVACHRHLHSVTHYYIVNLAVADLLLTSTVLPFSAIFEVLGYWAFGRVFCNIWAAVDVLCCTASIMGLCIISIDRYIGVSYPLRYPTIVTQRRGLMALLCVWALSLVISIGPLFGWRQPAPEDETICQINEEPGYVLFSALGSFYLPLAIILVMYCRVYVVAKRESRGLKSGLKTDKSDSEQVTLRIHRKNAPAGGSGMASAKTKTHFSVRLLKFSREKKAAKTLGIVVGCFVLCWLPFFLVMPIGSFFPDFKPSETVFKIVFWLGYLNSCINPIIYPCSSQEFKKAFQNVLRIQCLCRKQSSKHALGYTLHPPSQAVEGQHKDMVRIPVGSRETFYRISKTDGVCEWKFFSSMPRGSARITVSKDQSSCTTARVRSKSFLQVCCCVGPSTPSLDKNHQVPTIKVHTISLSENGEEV
Briefly: Binding affinity to human alpha1A adrenoreceptor expressed in membranes assessed as inhibition of [3H]-prazosin binding incubated for 90 mins by scintillation counting method. On the set-up: concentration or dose not given beside the values. Conditions: Cell membrane.

Data set [7] is described as follows: Toxicity in CD1 mouse assessed as inhibition of intestinal transit by measuring percentage of distance traveled by charcoal meal at 40 mg/kg, po. The format is organism-based. The settings on record: in vivo.
Data set [8] concerns HepG2. Nature of the data set: Toxicity in human HepG2 cells assessed as reduction in cell viability up to 100 uM by neutral red uptake assay. The format is cell-based.
Data set [9] in a line: Thermodynamic solubility of compound at pH 2. The format is physicochemical. Conditions: buffer, read-out: Therm_solubility.
Data set [10] in a line: Thermodynamic solubility of compound at pH 7.4. The format is physicochemical. The settings on record: buffer, read-out: Therm_solubility.
Data set [11] concerns Mus musculus. Briefly: Antinociceptive activity in CD1 mouse PSNL model assessed as reduction in mechanical allodynia by measuring decrease in the pressure required to elicit withdrawal of the ipsilateral paw after von Frey filament stimulation at 5 mg/kg, ip BID for 11 days from day 13 to day 22. Conditions: 264 h, time 11 day. The format is functional.
Data set [12] can be described thus: Intrinsic clearance in human liver microsomes. The settings on record: read-out: CLH. The format is ADME, Microsome. (Liver microsomes are vesicles of endoplasmic reticulum, rich in cytochrome P450 enzymes.)
A short description of data set [13]: Mutagenicity in Salmonella typhimurium by Ames test. The format is toxicity. The settings on record: salmonella enterica subsp. enterica serovar typhimurium.
The test system of data set [14] is Mus musculus. Nature of the data set: Antinociceptive activity in orally dosed CD1 mouse assessed as by paw pressure test. The format is functional. Conditions: CD1, po.
Data set [15] can be described thus: Toxicity in CD1 mouse PSNL model assessed as induction of opiate withdrawal by measuring expression of some behavioral signs measured immediately after naloxone injection at 5 mg/kg, ip BID for 11 days from day 13 to day 22 and measured on day 23. The format is organism-based. Conditions: in vivo, 264 h, time 11 day.
A short description of data set [16]: Lipophilicity, logD of compound. The format is physicochemical. Conditions: octanol/water.
Data set [17] has as its target CYP2D6 (Homo sapiens, UniProt P10635). Briefly: Inhibition of human CYP2D6 at 1 uM relative to control. The format is ADME.
Data set [18] addresses T2, CYP1A2 (Homo sapiens, UniProt P05177).
T2 sequence (P05177 whole entry): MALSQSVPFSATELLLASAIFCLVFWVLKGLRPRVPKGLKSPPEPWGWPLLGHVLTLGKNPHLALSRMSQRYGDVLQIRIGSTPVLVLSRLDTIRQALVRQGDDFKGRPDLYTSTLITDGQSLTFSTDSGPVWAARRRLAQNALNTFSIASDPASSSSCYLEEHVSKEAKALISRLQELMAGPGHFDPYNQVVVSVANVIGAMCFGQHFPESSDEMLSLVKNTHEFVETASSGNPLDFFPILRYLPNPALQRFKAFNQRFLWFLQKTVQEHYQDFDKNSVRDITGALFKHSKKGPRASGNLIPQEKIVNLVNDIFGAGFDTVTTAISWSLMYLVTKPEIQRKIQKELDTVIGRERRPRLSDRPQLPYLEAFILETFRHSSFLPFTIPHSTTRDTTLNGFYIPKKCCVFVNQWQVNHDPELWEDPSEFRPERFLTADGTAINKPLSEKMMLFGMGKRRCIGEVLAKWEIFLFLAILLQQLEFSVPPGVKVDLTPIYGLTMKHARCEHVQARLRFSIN
Nature of the data set: Inhibition of human CYP1A2 at 1 uM relative to control. The format is ADME.

Data set [19] has as its target CYP3A4 (Homo sapiens, UniProt P08684). Briefly: Inhibition of human CYP3A4 at 1 uM relative to control. The format is ADME.
The target in data set [20] is CYP2C19 (Homo sapiens, UniProt P33261). Nature of the data set: Inhibition of human CYP2C19 at 1 uM relative to control. The format is ADME.
Sequence of CYP2C19 (P33261 whole entry): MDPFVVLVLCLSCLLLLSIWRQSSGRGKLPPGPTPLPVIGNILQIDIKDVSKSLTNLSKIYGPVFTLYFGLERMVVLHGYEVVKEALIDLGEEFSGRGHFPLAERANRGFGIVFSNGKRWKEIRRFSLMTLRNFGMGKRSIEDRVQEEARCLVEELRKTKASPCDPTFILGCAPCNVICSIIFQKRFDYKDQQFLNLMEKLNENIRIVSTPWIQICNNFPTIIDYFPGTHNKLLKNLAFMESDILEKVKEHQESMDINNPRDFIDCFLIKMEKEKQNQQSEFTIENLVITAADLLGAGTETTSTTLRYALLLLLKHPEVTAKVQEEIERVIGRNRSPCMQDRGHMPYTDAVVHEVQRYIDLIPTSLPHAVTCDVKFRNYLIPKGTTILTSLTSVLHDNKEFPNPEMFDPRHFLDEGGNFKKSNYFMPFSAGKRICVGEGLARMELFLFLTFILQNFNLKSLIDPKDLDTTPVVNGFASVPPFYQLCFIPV
Data set [21] can be described thus: Permeability in human Caco-2 cells. The format is ADME, cell-based.
Data set [22] concerns Mus musculus. Nature of the data set: Antinociceptive activity in CD1 mouse at 10 to 40 mg/kg, po co-treated with 64 mg/kg, sc sigma1R agonist PRE-084 by paw pressure test. The format is functional. Conditions: dose 10-40 mg/kg.
Data set [23] concerns the target hERG (KCNH2) (Homo sapiens, UniProt Q12809). Nature of the data set: Inhibition of human ERG expressed in CHO cells at 10 uM at -80 mV holding potential by whole cell patch clamp assay. The settings on record: CHO cells expressing human ERG. The format is cell-based. (In general: In patch-clamp work, channel activity is measured electrically.)

pIC50: −log10 of the molar value. In brackets after ≈: the same amount, converted by molar mass. Some results are limits rather than exact numbers.

The source of these data is ChEMBL document CHEMBL4673253, “Discovery of EST73502, a Dual μ-Opioid Receptor Agonist and σ Receptor Antagonist Clinical Candidate for the Treatment of Pain” (J Med Chem, 2020).

Sequence of hERG (KCNH2) (Q12809 whole entry): as the sequence (Q12809 whole entry) above
Sequence of CYP3A4 (P08684 whole entry): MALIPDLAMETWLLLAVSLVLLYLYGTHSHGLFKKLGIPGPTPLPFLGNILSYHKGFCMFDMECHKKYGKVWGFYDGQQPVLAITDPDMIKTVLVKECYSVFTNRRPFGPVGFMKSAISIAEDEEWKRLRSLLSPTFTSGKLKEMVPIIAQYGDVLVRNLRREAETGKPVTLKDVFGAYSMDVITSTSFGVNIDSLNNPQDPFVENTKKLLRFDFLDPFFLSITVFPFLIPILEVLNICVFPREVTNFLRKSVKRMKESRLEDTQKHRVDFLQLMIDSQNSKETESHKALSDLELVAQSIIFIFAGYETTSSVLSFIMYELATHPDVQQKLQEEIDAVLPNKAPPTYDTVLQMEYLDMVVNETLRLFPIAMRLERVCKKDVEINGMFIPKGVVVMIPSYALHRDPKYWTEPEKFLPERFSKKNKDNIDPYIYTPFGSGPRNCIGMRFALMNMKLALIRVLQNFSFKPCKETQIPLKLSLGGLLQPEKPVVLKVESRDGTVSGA
Sequence of CYP2D6 (P10635 whole entry): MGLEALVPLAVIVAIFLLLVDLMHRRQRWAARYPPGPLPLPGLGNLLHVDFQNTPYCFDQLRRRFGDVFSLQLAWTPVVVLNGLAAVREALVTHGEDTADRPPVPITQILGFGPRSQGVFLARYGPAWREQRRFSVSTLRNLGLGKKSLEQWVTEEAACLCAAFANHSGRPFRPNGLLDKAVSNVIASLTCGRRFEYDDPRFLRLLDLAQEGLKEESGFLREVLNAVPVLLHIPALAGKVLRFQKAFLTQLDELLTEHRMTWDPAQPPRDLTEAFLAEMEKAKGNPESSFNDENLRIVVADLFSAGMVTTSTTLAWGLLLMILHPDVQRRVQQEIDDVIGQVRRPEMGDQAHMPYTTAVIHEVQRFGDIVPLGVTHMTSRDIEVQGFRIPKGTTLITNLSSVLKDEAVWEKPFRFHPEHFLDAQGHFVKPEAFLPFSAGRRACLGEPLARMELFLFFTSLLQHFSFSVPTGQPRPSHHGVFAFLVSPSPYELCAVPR
Sequence of CYP2C9 (P11712 whole entry): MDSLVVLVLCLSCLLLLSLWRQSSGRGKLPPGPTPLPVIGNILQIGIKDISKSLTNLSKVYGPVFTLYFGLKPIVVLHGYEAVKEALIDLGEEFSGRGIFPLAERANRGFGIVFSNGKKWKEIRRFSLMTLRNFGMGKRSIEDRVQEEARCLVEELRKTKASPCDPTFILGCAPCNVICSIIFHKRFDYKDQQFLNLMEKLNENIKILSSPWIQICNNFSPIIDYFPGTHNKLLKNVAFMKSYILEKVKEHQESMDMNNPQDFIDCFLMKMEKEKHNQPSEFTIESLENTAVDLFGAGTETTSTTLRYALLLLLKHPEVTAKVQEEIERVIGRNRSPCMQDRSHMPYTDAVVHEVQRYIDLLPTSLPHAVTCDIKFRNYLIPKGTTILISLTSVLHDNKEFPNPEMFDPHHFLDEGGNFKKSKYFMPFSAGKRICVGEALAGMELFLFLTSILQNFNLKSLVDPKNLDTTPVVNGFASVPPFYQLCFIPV

What is called logD is the decadic logarithm of the distribution of all forms, ionised or not, between an organic phase and buffer at a given pH. The inhibition is the relative decrease from the control value, in per cent. The term pIC50 denotes the negative decadic logarithm of the IC50, by convention in mol/L. Usually inhibition in vivo stands for the relative decrease from the control value, in per cent. One may read the Emax as the maximal effect, on the per cent scale that the assay sets. Usually Papp stands for a coefficient for how fast a substance crosses the barrier. `CCN1CC2(CCN(CCc3cc(F)ccc3F)CC2)O[C@H](C)C1=O`: the Activity entry in [1], in data set [2], in data set [7], in data set [8], in data set [13] and in data set [15] was “Non-Toxic” throughout. Further, the logD in data set [3] was determined as 2; in data set [16] it was 2.7. The inhibition at 1 µM in data set [4], in data set [17], in data set [18], in data set [19] and in data set [20] was less than 50% throughout. This compound also gave a pIC50 in data set [5] of less than 5.00. The inhibition in data set [6] turned out to be 21%. The solubility thermodynamic in [9] is 45.1 mg/mL (≈ 128 mM); in [10] it was 17.7 mg/mL (≈ 50.2 mM). In addition, the inhibition in vivo at 5 mg/kg in data set [11] stood at 56%. Also, the microsomal CLint in data set [12] is 2.4 µL/min/mg. Also, the Emax in data set [14] amounted to 64%; in data set [22] it was 40%. For the same compound, in data set [21], the Papp is 34.9 ×10⁻⁶ cm/s. The inhibition at 10 µM in data set [23] is less than 50%.
